# Measurements published in paper PMC6632053, “Incorporation of Putative Helix-Breaking Amino Acids in the Design of Novel Stapled Peptides: Exploring Biophysical and Cellular Permeability Properties” (Molecules, 2019).
# Where two headings read alike, the source gives them in different places. Bridge positions count the residues as written; N and C are the ends. Square brackets hold non-standard residues; d marks the D form. Peptide text beside a SMILES is read from it. Lys(N3) = [N-]=[N+]=NCCCC[C@H](N)C(=O)O; R8 = C=CCCCCCC[C@@](C)(N)C(=O)O; Cba = N[C@@H](CC1CCC1)C(=O)O; S5 = C=CCCC[C@](C)(N)C(=O)O; βAla = NCCC(=O)O
# Legend:
# [1] = biological target: T1, human Mdm2 1–125 (Homo sapiens, UniProt Q00987); assay: Mdm2 binding assay (competitive fluorescence anisotropy/polarization); details: competitive fluorescence polarization, read-out: Mdm2 (nM), Mdm2 binding (Kd)
# T1 construct: GST (N); His6 (internal); TEV cleavage site ENLYFQG (internal); made in house; host or cells: Escherichia coli BL21 (DE3) Rosetta T1R
# Protocol: The TEV (tobacco etch virus) cleavage site was changed from ENLYFQS to ENLYFQG to give a fusion protein with the following sequence:
# Titrations were carried out with the concentration of Mdm2 held constant at 250 nM and the labeled peptide at 50 nM. The competing molecules were then titrated against the complex of the FAM-labeled peptide and protein. Apparent Kd values were determined by fitting the experimental data to the equations shown below:(2) r=r0+(rb−r0)×2(d^2−3e)cos(θ/3)−9/3Kd1+2(d^2−3e)cos(θ/3)−dd=Kd1+Kd2+[L]st+[L]t−[P]te=([L]t−[P]t)Kd1+([L]st−[P]t)Kd2+Kd1Kd2f=−Kd1Kd2[P]tθ=arcos[−2d^3+9de−27f/2(d^2−3e)^3] where [L]st and [L]t denote labeled ligand and total unlabeled ligand input concentrations, respectively. Kd2 is the dissociation constant of the interaction between the unlabeled ligand and the protein. In all competition experiments, it was assumed that [P]t > [L]st, otherwise considerable amounts of free labeled ligand would always be present and would interfere with measurements. Kd1 is the apparent Kd for the labeled peptide used and was experimentally determined as described in the previous paragraph. The FAM-labeled peptide was dissolved in dimethyl sulfoxide (DMSO) at 1 mM and diluted into the experimental buffer. Readings were carried out with an Envision Multilabel Reader (PerkinElmer). Experiments were carried out in PBS (2.7 mM KCl, 137mM NaCl, 10 mM Na2HPO4, and 2 mM KH2PO4 (pH 7.4)) and 0.1% Tween 20 buffer. All titrations were carried out in triplicate. Curve-fitting was carried out using Prism 4.0 (GraphPad). […] Negative control titrations of the ligands under investigation were also carried out with the fluorescently labeled peptide (in the absence of Mdm2) to ensure no interactions were occurring between the ligands and the FAM-labeled peptide.
# [2] = Circular dichroism (CD) α-helicity; assay type: physicochemical; details: for Helicity (%): CD of free peptide, 25 °C, 1 mM Hepes pH 7.4, 5% methanol
# Protocol: A total of 5 µL of the 10 mM stock peptide was mixed with 45 µL of 100% methanol, and dried for 2 h in the SpeedVac concentrator (Thermo Scientific). The dried peptide was reconstituted in a buffer (1 mM Hepes pH 7.4 and 5% methanol) to a concentration of 1 mM. The peptide sample was placed in a quartz cuvette with a path length of 0.2 cm. The peptide concentration was determined by the absorbance of the peptide at […]. The CD spectrum was recorded from 300 to 190 nm using the Chirascan-plus qCD machine (Applied Photophysics, Surrey, UK), at 25 °C. All experiments were done in duplicates. The CD spectrum was converted to mean residue ellipticity, before deconvolution and estimation of the secondary structure components of the peptide using the CDNN software (distributed by Applied Photophysics).
# [3] = tested on: p53 responsive β-lactamase reporter in HCT116 cells; assay: p53 beta-lactamase reporter gene cellular functional assay; assay type: cell-based; details: p53 reporter assay, HCT116, read-out: Cellular (µM), cellular activity (EC50)
# Protocol: HCT116 cells were stably transfected with a p53 responsive β-lactamase reporter and were seeded into a 384-well plate at a density of 8000 cells per well. Cells were maintained in McCoy’s 5A Medium with 10% fetal bovine serum (FBS), Blasticidin, and Penicillin/Streptomycin. The cells were incubated overnight, followed by removal of cell growth media and replacement with Opti-MEM either containing 0% FBS or 10% FBS. […] The final working concentration of DMSO was 0.5%. β-lactamase activity was detected using the ToxBLAzer Dual Screen (Invitrogen), as per the manufacturer’s instructions. Measurements were made using the Envision multiplate reader (Perkin–Elmer).
# T1 sequence (Q00987 with tags, fused parts or gaps): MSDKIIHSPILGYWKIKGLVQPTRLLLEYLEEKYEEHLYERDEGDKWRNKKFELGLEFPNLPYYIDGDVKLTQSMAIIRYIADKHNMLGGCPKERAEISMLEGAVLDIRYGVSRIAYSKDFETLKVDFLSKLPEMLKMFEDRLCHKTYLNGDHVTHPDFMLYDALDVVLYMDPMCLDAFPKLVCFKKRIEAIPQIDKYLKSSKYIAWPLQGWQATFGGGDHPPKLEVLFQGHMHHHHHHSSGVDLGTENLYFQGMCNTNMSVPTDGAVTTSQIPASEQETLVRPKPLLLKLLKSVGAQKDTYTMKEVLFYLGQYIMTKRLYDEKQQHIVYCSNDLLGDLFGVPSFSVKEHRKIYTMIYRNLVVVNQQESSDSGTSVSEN
SMILES,Kd ([1]; Table 1),Helicity (%) ([2]; Table 1),EC50 ([3]; Table 1),Kd ([1]; Table 2),Helicity (%) ([2]; Table 2),EC50 ([3]; Table 2),α-helicity by CD [2]
CC(=O)N[C@@H](CC(C)C)C(=O)N[C@H](C(=O)N[C@@H](Cc1ccccc1)C(=O)N[C@]1(C)CCCCCCC=CCCC[C@@](C)(C(=O)N[C@@H](CO)C(=O)N[C@H](C)C(=O)N[C@@H](C)C(N)=O)NC(=O)[C@H](CC2CCC2)NC(=O)[C@H](CC(C)C)NC(=O)[C@H](CCC(N)=O)NC(=O)[C@H](Cc2c[nH]c3ccccc23)NC(=O)[C@H](Cc2ccc(O)cc2)NC(=O)[C@H](CCC(=O)O)NC1=O)[C@@H](C)O [A13(D-Ala)],17 nM,41.8%,0.6 µM,,,,
CC(=O)N[C@@H](CCCCN=[N+]=[N-])C(=O)NCCC(=O)N[C@@H](CC(C)C)C(=O)N[C@H](C(=O)N[C@@H](Cc1ccccc1)C(=O)N[C@]1(C)CCCCCCC=CCCC[C@@](C)(C(=O)N[C@@H](CO)C(=O)N(C)[C@@H](C)C(=O)N[C@@H](C)C(N)=O)NC(=O)[C@H](CC2CCC2)NC(=O)[C@H](CCC(N)=O)NC(=O)[C@H](C)NC(=O)[C@H](Cc2c[nH]c3ccccc23)NC(=O)[C@H](Cc2ccc(O)cc2)NC(=O)[C@H](CCC(=O)O)NC1=O)[C@@H](C)O [A13(N-methyl L-Ala)],,,,10 nM,38.6%,1.6 µM,
CC(=O)N[C@@H](CC(C)C)C(=O)N[C@H](C(=O)N[C@@H](Cc1ccccc1)C(=O)N[C@]1(C)CCCCCCC=CCCC[C@@](C)(C(=O)N[C@@H](CO)C(=O)N[C@@H](C)C(=O)N[C@H](C)C(N)=O)NC(=O)[C@H](CC2CCC2)NC(=O)[C@H](CC(C)C)NC(=O)[C@H](CCC(N)=O)NC(=O)[C@H](Cc2c[nH]c3ccccc23)NC(=O)[C@H](Cc2ccc(O)cc2)NC(=O)[C@H](CCC(=O)O)NC1=O)[C@@H](C)O [A14(D-Ala)],18 nM,34.6%,0.5 µM,,,,
CC(=O)N[C@@H](CC(C)C)C(=O)N[C@H](C(=O)N[C@@H](Cc1ccccc1)C(=O)N[C@]1(C)CCCCCCC=CCCC[C@@](C)(C(=O)N[C@@H](CO)C(=O)N[C@@H](C)C(=O)N[C@@H](C)C(N)=O)NC(=O)[C@H](CC2CCC2)NC(=O)[C@H](CC(C)C)NC(=O)[C@H](CCC(N)=O)NC(=O)[C@H](Cc2c[nH]c3ccccc23)NC(=O)[C@H](Cc2ccc(O)cc2)NC(=O)[C@@H](CCC(=O)O)NC1=O)[C@@H](C)O [E5(D-Glu)],32 nM,38.2%,1 µM,,,,
CC(=O)N[C@@H](CC(C)C)C(=O)N[C@H](C(=O)N[C@H](Cc1ccccc1)C(=O)N[C@]1(C)CCCCCCC=CCCC[C@@](C)(C(=O)N[C@@H](CO)C(=O)N[C@@H](C)C(=O)N[C@@H](C)C(N)=O)NC(=O)[C@H](CC2CCC2)NC(=O)[C@H](CC(C)C)NC(=O)[C@H](CCC(N)=O)NC(=O)[C@H](Cc2c[nH]c3ccccc23)NC(=O)[C@H](Cc2ccc(O)cc2)NC(=O)[C@H](CCC(=O)O)NC1=O)[C@@H](C)O [F3(D-Phe)],6480 nM,51.8%,> 50 µM,,,,
CC(=O)N[C@H](CC(C)C)C(=O)N[C@H](C(=O)N[C@@H](Cc1ccccc1)C(=O)N[C@]1(C)CCCCCCC=CCCC[C@@](C)(C(=O)N[C@@H](CO)C(=O)N[C@@H](C)C(=O)N[C@@H](C)C(N)=O)NC(=O)[C@H](CC2CCC2)NC(=O)[C@H](CC(C)C)NC(=O)[C@H](CCC(N)=O)NC(=O)[C@H](Cc2c[nH]c3ccccc23)NC(=O)[C@H](Cc2ccc(O)cc2)NC(=O)[C@H](CCC(=O)O)NC1=O)[C@@H](C)O [L1(D-Leu)],31 nM,44.1%,0.6 µM,,,,
"CC(=O)N[C@@H](CCCCN=[N+]=[N-])C(=O)NCCC(=O)NCC(=O)N[C@H](C(=O)N[C@@H](Cc1ccccc1)C(=O)N[C@]1(C)CCCCCCC=CCCC[C@@](C)(C(=O)N[C@@H](CO)C(=O)N[C@@H](C)C(=O)N[C@@H](C)C(N)=O)NC(=O)[C@H](CC2CCC2)NC(=O)[C@H](CCC(N)=O)NC(=O)CNC(=O)[C@H](Cc2c[nH]c3ccccc23)NC(=O)[C@H](Cc2ccc(O)cc2)NC(=O)CNC1=O)[C@@H](C)O [L1G, E5G, A8G] (Ac-[Lys(N3)][βAla]GTF[R8]GYWGQ[Cba][S5]SAA-NH2; staple 6-13)",,,,49.8 nM,20.4%,1.7 µM,20.4%
CC(=O)N[C@@H](CC(C)C)C(=O)N[C@H](C(=O)N[C@@H](Cc1ccccc1)C(=O)N[C@]1(C)CCCCCCC=CCCC[C@@](C)(C(=O)N[C@@H](CO)C(=O)N[C@@H](C)C(=O)N[C@@H](C)C(N)=O)NC(=O)[C@H](CC2CCC2)NC(=O)[C@@H](CC(C)C)NC(=O)[C@H](CCC(N)=O)NC(=O)[C@H](Cc2c[nH]c3ccccc23)NC(=O)[C@H](Cc2ccc(O)cc2)NC(=O)[C@H](CCC(=O)O)NC1=O)[C@@H](C)O [L9(D-Leu)],30 nM,39.0%,1.1 µM,,,,
CC(=O)N[C@H](CC(C)C)C(=O)N[C@H](C(=O)N[C@@H](Cc1ccccc1)C(=O)NC(C)(C)C(=O)N[C@@H](CCC(=O)O)C(=O)N[C@@H](Cc1ccc(O)cc1)C(=O)N[C@@H](Cc1c[nH]c2ccccc12)C(=O)N[C@@H](CCC(N)=O)C(=O)N[C@@H](CC(C)C)C(=O)N[C@@H](CC1CCC1)C(=O)NC(C)(C)C(=O)N[C@@H](CO)C(=O)N[C@@H](C)C(=O)N[C@@H](C)C(N)=O)[C@@H](C)O [Linear L1(D-Leu)],277 nM,37.2%,> 50 µM,,,,
CC(=O)N[C@@H](CC(C)C)C(=O)N[C@H](C(=O)N[C@@H](Cc1ccccc1)C(=O)NC(C)(C)C(=O)N[C@@H](CCC(=O)O)C(=O)N[C@@H](Cc1ccc(O)cc1)C(=O)N[C@@H](Cc1c[nH]c2ccccc12)C(=O)N[C@@H](CCC(N)=O)C(=O)N[C@H](CC(C)C)C(=O)N[C@@H](CC1CCC1)C(=O)NC(C)(C)C(=O)N[C@@H](CO)C(=O)N[C@@H](C)C(=O)N[C@@H](C)C(N)=O)[C@@H](C)O [Linear L9(D-Leu)],88 nM,19.7%,> 50 µM,,,,
CC(=O)N[C@@H](CC(C)C)C(=O)N[C@H](C(=O)N[C@@H](Cc1ccccc1)C(=O)NC(C)(C)C(=O)N[C@@H](CCC(=O)O)C(=O)N[C@@H](Cc1ccc(O)cc1)C(=O)N[C@@H](Cc1c[nH]c2ccccc12)C(=O)N[C@H](CCC(N)=O)C(=O)N[C@@H](CC(C)C)C(=O)N[C@@H](CC1CCC1)C(=O)NC(C)(C)C(=O)N[C@@H](CO)C(=O)N[C@@H](C)C(=O)N[C@@H](C)C(N)=O)[C@@H](C)O [Linear Q8(D-Gln)],119 nM,21.8%,> 50 µM,,,,
CC(=O)N[C@@H](CC(C)C)C(=O)N[C@H](C(=O)N[C@@H](Cc1ccccc1)C(=O)N[C@]1(C)CCCCCCC=CCCC[C@@](C)(C(=O)N[C@@H](CO)C(=O)N[C@@H](C)C(=O)N[C@@H](C)C(N)=O)NC(=O)[C@H](CC2CCC2)NC(=O)[C@H](CC(C)C)NC(=O)[C@H](CCC(N)=O)NC(=O)[C@H](Cc2c[nH]c3ccccc23)NC(=O)[C@H](Cc2ccc(O)cc2)NC(=O)[C@H](C)NC1=O)[C@@H](C)O [Peptide E5A] (Ac-LTF[R8]AYWQL[Cba][S5]SAA-NH2; staple 4-11),29.8 nM,27.6%,0.18 µM,,,,
CC(=O)N[C@@H](CCCCN=[N+]=[N-])C(=O)NCCC(=O)N[C@@H](CC(C)C)C(=O)N[C@H](C(=O)N[C@@H](Cc1ccccc1)C(=O)N[C@]1(C)CCCCCCC=CCCC[C@@](C)(C(=O)N[C@@H](CO)C(=O)N[C@@H](C)C(=O)N[C@@H](C)C(N)=O)NC(=O)[C@H](CC2CCC2)NC(=O)[C@H](CCC(N)=O)NC(=O)[C@H](C)NC(=O)[C@H](Cc2c[nH]c3ccccc23)NC(=O)[C@H](Cc2ccc(O)cc2)NC(=O)CNC1=O)[C@@H](C)O [Peptide E5G],,,,61.8 nM,28.6%,0.26 µM,28.6%
